Measurements as given in US12049450B2, “Pyridyloxy-carboxylate derivative and preparation method therefor, herbicidal composition, and use” (Qingdao Kingagroot Chemical Compound Co., Ltd., priority 2018, dated 2024).

What was measured:
Test in all cases: Post-emergence test experiment (greenhouse pot, spray at 2-3 leaf stage)
Format in all cases: in vivo
Conditions in all cases: 1000 g/ha; post-emergence spray at 2-3 leaf stage; assessed after 3 weeks; fresh weight inhibition rate
[1] = system: Galium spurium
Source text: (§1) The activity level standard of harmful plants destruction (i. e. growth inhibition rate) is as follows: • Level 5: the growth inhibition rate is greater than 85%; • Level 4: the growth inhibition rate is equal to or greater than 60% and less than 85%; • Level 3: the growth inhibition rate is equal to or greater than 40% and less than 60%; • Level 2: the growth inhibition rate is equal to or greater than 20% and less than 40%; • Level 1: the growth inhibition rate is equal to or greater than 5% and less than 20%; • Level 0: the growth inhibition rate is less than 5%;
(§2) The above described growth inhibition rate is fresh weight inhibition rate.
(§3) Post-emergence test experiment: Monocotyledonous and dicotyledonous weed seeds and main crop seeds (i. e. wheat, corn, rice, soybean, cotton, oilseed, millet and sorghum.) were put into a plastic pot loaded with soil. Then covered with 0.5-2 cm soil, the seeds were allowed to grow in good greenhouse environment. The test plants were treated at 2-3 leaf stage 2 weeks after sowing. The test compounds of the invention were dissolved with acetone respectively, then added with tween-80, and using 1.5 liters per hectare of an emulsible concentrate of methyl oleate as a synergist, and diluted by certain amount of water to certain concentration. The solution was sprayed to the plants with a sprayer. Then the plants were cultured for 3 weeks in the greenhouse, and the experiment result of weed controlling effect after 3 weeks was listed in tables 3-4.

[2] = system: Monochoria vaginalis
Source text: as §1, §2, §3

[3] = system: Abutilon theophrasti
Source text: as §1, §2, §3

| Compound | Activity level (growth inhibition rate) Galium spurium [1] | Activity level (growth inhibition rate) Monochoria Vaginalis [2] | Activity level (growth inhibition rate) Abutilon theophrasti [3] |
| --- | --- | --- | --- |
| Nc1c(Cl)c(F)nc(OC(C(=O)OCc2ccccc2)[N+](=O)[O-])c1Cl (stereo not drawn) [Compound 49] | 5 (Level 5: the growth inhibition rate is greater than 85%) | 5 (Level 5: the growth inhibition rate is greater than 85%) | 5 (Level 5: the growth inhibition rate is greater than 85%) |
| Nc1c(Cl)c(F)nc(OC(C(=O)OCc2ccccc2)c2ccccc2)c1Cl (stereo not drawn) [Compound 60] | 5 (Level 5: the growth inhibition rate is greater than 85%) | 5 (Level 5: the growth inhibition rate is greater than 85%) | 5 (Level 5: the growth inhibition rate is greater than 85%) |
| Nc1c(Cl)c(F)nc(OC(Br)C(=O)SCc2ccccc2)c1Cl (stereo not drawn) [Compound 36] | 5 (Level 5: the growth inhibition rate is greater than 85%) | 5 (Level 5: the growth inhibition rate is greater than 85%) | 5 (Level 5: the growth inhibition rate is greater than 85%) |
| CSC(Oc1nc(F)c(Cl)c(N)c1Cl)C(=O)OCc1ccccc1 (stereo not drawn) [Compound 47] | 5 (Level 5: the growth inhibition rate is greater than 85%) | 5 (Level 5: the growth inhibition rate is greater than 85%) | 5 (Level 5: the growth inhibition rate is greater than 85%) |
| Nc1c(Cl)c(F)nc(OC(C(=O)OCc2ccccc2)C2CC2)c1Cl (stereo not drawn) [Compound 28] | 5 (Level 5: the growth inhibition rate is greater than 85%) | 5 (Level 5: the growth inhibition rate is greater than 85%) | 5 (Level 5: the growth inhibition rate is greater than 85%) |
| COc1ccc(C(Oc2nc(F)c(Cl)c(N)c2Cl)C(=O)OCc2ccccc2)c(C)c1 (stereo not drawn) [Compound 63] | 5 (Level 5: the growth inhibition rate is greater than 85%) | 5 (Level 5: the growth inhibition rate is greater than 85%) | 5 (Level 5: the growth inhibition rate is greater than 85%) |
| CCn1nccc1C(Oc1nc(F)c(Cl)c(N)c1Cl)C(=O)OCc1ccccc1 (stereo not drawn) [Compound 57] | 5 (Level 5: the growth inhibition rate is greater than 85%) | 5 (Level 5: the growth inhibition rate is greater than 85%) | 5 (Level 5: the growth inhibition rate is greater than 85%) |
| CCCC(Oc1nc(F)c(Cl)c(N)c1Cl)C(=O)SCc1ccccc1 (stereo not drawn) [Compound 26] | 5 (Level 5: the growth inhibition rate is greater than 85%) | 5 (Level 5: the growth inhibition rate is greater than 85%) | 5 (Level 5: the growth inhibition rate is greater than 85%) |
| COC(C)C(Oc1nc(F)c(Cl)c(N)c1Cl)C(=O)OCc1ccccc1 (stereo not drawn) [Compound 31] | 5 (Level 5: the growth inhibition rate is greater than 85%) | 5 (Level 5: the growth inhibition rate is greater than 85%) | 5 (Level 5: the growth inhibition rate is greater than 85%) |
| Nc1c(Cl)c(F)nc(OC(C=O)C(=O)OCc2ccccc2)c1Cl (stereo not drawn) [Compound 51] | 5 (Level 5: the growth inhibition rate is greater than 85%) | 5 (Level 5: the growth inhibition rate is greater than 85%) | 5 (Level 5: the growth inhibition rate is greater than 85%) |
